Laboratory results from paper PMC10041525, “New Dual Inhibitors of Bacterial Topoisomerases with Broad-Spectrum Antibacterial Activity and In Vivo Efficacy against Vancomycin-Intermediate Staphylococcus aureus” (Journal of Medicinal Chemistry, 2023).
Values after ≈ are worked out from the molar mass of the structure shown. Values joined by “and” are separate entries in the source; they are usually repeats but may differ in a detail not shown here. Equal entries are not always repeated. Where two headings read alike, the source gives them in different places.

Tests used:
[1] = test system: 100 A. baumannii strains (50 MDR, 50 non-MDR); test: MIC broth microdilution at IHMA Europe, panel of 100 strains; assay type: cell-based; conditions: for MIC / MIC50 / MIC90: Acinetobacter baumannii
E. faecium (n = 13) = test: MIC broth microdilution at IHMA Europe; assay type: cell-based; conditions: for MIC: Enterococcus faecium, read-out: MIC
[2] = test system: Haemophilus influenzae (n = 14); test: MIC broth microdilution at IHMA Europe; assay type: cell-based, H. influenzae; conditions: for MIC: Haemophilus influenzae, read-out: MIC

Cc1[nH]c(C(=O)Nc2nc3c(N4CCOCC4)cc(C(=O)O)cc3s2)c(Cl)c1Cl [7a, 2-(3,4-Dichloro-5-methyl-1H-pyrrole-2-carboxamido)-4-morpholinobenzo[d]thiazole-6-carboxylic Acid] showed an MIC ([1]; A. baumannii IHMA 2195460, Italy 2020, MDR) of 8 µg/mL (≈ 17.6 µM), an MIC ([1]; A. baumannii IHMA 2196914, South Africa 2020, MDR) of 8 µg/mL (≈ 17.6 µM) and an MIC ([1]; A. baumannii IHMA 2196959, South Africa 2020, MDR) of 8 µg/mL (≈ 17.6 µM). For the same compound, the MIC ([1]; A. baumannii IHMA 2203763, Spain 2020, MDR) was 8 µg/mL (≈ 17.6 µM), the MIC ([1]; A. baumannii IHMA 2212575, Hungary 2020, Non-MDR) was 16 µg/mL (≈ 35.1 µM) and the MIC ([1]; A. baumannii IHMA 2215307, Hong Kong 2020, Non-MDR) was 8 µg/mL (≈ 17.6 µM). It also gave an MIC ([1]; A. baumannii IHMA 2216586, Taiwan 2020, MDR) of 8 µg/mL (≈ 17.6 µM), an MIC ([1]; A. baumannii IHMA 2224017, Panama 2020, MDR) of 16 µg/mL (≈ 35.1 µM) and an MIC ([1]; A. baumannii IHMA 2224303, Panama 2020, Non-MDR) of 32 µg/mL (≈ 70.3 µM). For the same compound, the MIC ([1]; A. baumannii IHMA 2233099, Guatemala 2020, MDR) was 16 µg/mL (≈ 35.1 µM), the MIC ([1]; A. baumannii IHMA 2233430, Kazakhstan 2020, MDR) was 8 µg/mL (≈ 17.6 µM) and the MIC ([1]; A. baumannii IHMA 2233548, Kazakhstan 2020, Non-MDR) was 8 µg/mL (≈ 17.6 µM). The MIC ([1]; A. baumannii IHMA 2238964, Thailand 2020, MDR) was 8 µg/mL (≈ 17.6 µM), the MIC ([1]; A. baumannii IHMA 2239052, Thailand 2020, Non-MDR) was 8 µg/mL (≈ 17.6 µM) and the MIC ([1]; A. baumannii IHMA 2261047, Belgium 2020, MDR) was 16 µg/mL (≈ 35.1 µM). It also gave an MIC ([1]; A. baumannii IHMA 2261633, Canada 2020, Non-MDR) of 16 µg/mL (≈ 35.1 µM), an MIC ([1]; A. baumannii IHMA 2274234, South Africa 2020, MDR) of 8 µg/mL (≈ 17.6 µM) and an MIC ([1]; A. baumannii IHMA 2274364, South Africa 2020, MDR) of 8 µg/mL (≈ 17.6 µM). The MIC ([1]; A. baumannii IHMA 2275237, Chile 2020, Non-MDR) was 8 µg/mL (≈ 17.6 µM), the MIC ([1]; A. baumannii IHMA 2316205, United States 2020, MDR) was 8 µg/mL (≈ 17.6 µM) and the MIC50 ([1]; MDR n = 50) was 8 µg/mL (≈ 17.6 µM). It also gave an MIC90 ([1]; MDR n = 50) of 8 µg/mL (≈ 17.6 µM), an MIC50 ([1]; all isolates n = 100) of 8 µg/mL (≈ 17.6 µM) and an MIC90 ([1]; all isolates n = 100) of 16 µg/mL (≈ 35.1 µM). The MIC50 ([1]; non-MDR n = 50) was 8 µg/mL (≈ 17.6 µM), the MIC90 ([1]; non-MDR n = 50) was 16 µg/mL (≈ 35.1 µM) and the MIC ([1]; read-out: MAX (maximum MIC), non-MDR n = 50) was 32 µg/mL (≈ 70.3 µM). For the same compound, the MIC ([1]; read-out: MAX (maximum MIC; all strains inhibited), MDR n = 50) was 16 µg/mL (≈ 35.1 µM), the MIC ([1]; read-out: MAX (maximum MIC; all strains inhibited), all isolates n = 100) was 32 µg/mL (≈ 70.3 µM) and the MIC ([1]; read-out: MIN (minimum MIC), all isolates n = 100) was 1 µg/mL (≈ 2.2 µM). The MIC ([1]; read-out: MIN (minimum MIC), non-MDR n = 50) was 1 µg/mL (≈ 2.2 µM), the “MAX (maximum MIC; all strains inhibited)” value ([1]; MDR n = 50) was 16 µg/mL and the “Cumulative % at MIC” value (E. faecium (n = 13)) was 61.5% and 100.0%. For the same compound, the “No. of isolates at MIC” value (E. faecium (n = 13)) was 8 and 5, the MIC (E. faecium (n = 13); E. faecium IHMA N° 1764866) was 0.06 µg/mL (≈ 0.132 µM) and the MIC (E. faecium (n = 13); E. faecium IHMA N° 1765436) was 0.06 µg/mL (≈ 0.132 µM). It also gave an MIC (E. faecium (n = 13); E. faecium IHMA N° 1765746) of 0.06 µg/mL (≈ 0.132 µM), an MIC (E. faecium (n = 13); E. faecium IHMA N° 1893573) of 0.06 µg/mL (≈ 0.132 µM) and an MIC (E. faecium (n = 13); E. faecium IHMA N° 1893846) of 0.12 µg/mL (≈ 0.264 µM). It also gave an MIC (E. faecium (n = 13); E. faecium IHMA N° 1893942) of 0.12 µg/mL (≈ 0.264 µM), an MIC (E. faecium (n = 13); E. faecium IHMA N° 1894055) of 0.12 µg/mL (≈ 0.264 µM) and an MIC (E. faecium (n = 13); E. faecium IHMA N° 1897027) of 0.12 µg/mL (≈ 0.264 µM). For the same compound, the MIC (E. faecium (n = 13); E. faecium IHMA N° 1897101) was 0.06 µg/mL (≈ 0.132 µM), the MIC (E. faecium (n = 13); E. faecium IHMA N° 1904592) was 0.06 µg/mL (≈ 0.132 µM) and the MIC (E. faecium (n = 13); E. faecium IHMA N° 2075051) was 0.12 µg/mL (≈ 0.264 µM). For the same compound, the MIC (E. faecium (n = 13); E. faecium IHMA N° 2077718) was 0.06 µg/mL (≈ 0.132 µM), the MIC (E. faecium (n = 13); E. faecium IHMA N° 2083787) was 0.06 µg/mL (≈ 0.132 µM) and the “MIC, all isolates” value (E. faecium (n = 13); n = 13) was at most 0.12 µg/mL. For the same compound, the “No. of isolates at MIC” value [2] was 3 and 6 and 4, the MIC ([2]; H. influenzae IHMA N° 1227715) was 0.12 µg/mL (≈ 0.264 µM) and the MIC ([2]; H. influenzae IHMA N° 1241620) was 0.25 µg/mL (≈ 0.549 µM). For the same compound, the MIC ([2]; H. influenzae IHMA N° 1244149) was 0.5 µg/mL (≈ 1.1 µM), the MIC ([2]; H. influenzae IHMA N° 1249803) was 0.12 µg/mL (≈ 0.264 µM) and the MIC ([2]; H. influenzae IHMA N° 1254355) was 0.25 µg/mL (≈ 0.549 µM). The MIC ([2]; H. influenzae IHMA N° 1258580) was 0.5 µg/mL (≈ 1.1 µM), the MIC ([2]; H. influenzae IHMA N° 1262734) was 0.25 µg/mL (≈ 0.549 µM) and the MIC ([2]; H. influenzae IHMA N° 1272723) was 0.25 µg/mL (≈ 0.549 µM). It also gave an MIC ([2]; H. influenzae IHMA N° 1286846) of 0.5 µg/mL (≈ 1.1 µM), an MIC ([2]; H. influenzae IHMA N° 1337530) of 0.12 µg/mL (≈ 0.264 µM) and an MIC ([2]; H. influenzae IHMA N° 1440085) of 0.5 µg/mL (≈ 1.1 µM). For the same compound, the MIC ([2]; H. influenzae IHMA N° 1479509) was 1 µg/mL (≈ 2.2 µM), the MIC ([2]; H. influenzae IHMA N° 1952952) was 0.25 µg/mL (≈ 0.549 µM) and the MIC ([2]; H. influenzae IHMA N° 2047461) was 0.25 µg/mL (≈ 0.549 µM). The “Cumulative % at MIC” value ([2]; MIC 1 µg/mL) was 100.0%, the “No. of isolates at MIC” value ([2]; MIC 1 µg/mL) was 1 and the “MIC, all isolates” value ([2]; n = 14) was at most 1 µg/mL.
